Experimental data from patent US7737143B2, “Substituted pyrazines as kinase inhibitors” (YM Biosciences Australia Pty Ltd, priority 2003, dated 2010).

These molecules were tested against T1, abl (Homo sapiens, UniProt P00519) (assay: Kinase assay (ELISA or Alphascreen), abl). Conditions: standard conditions, read-out: abl inhibition of enzyme activity.
T1 sequence (P00519 242-493 limits assumed): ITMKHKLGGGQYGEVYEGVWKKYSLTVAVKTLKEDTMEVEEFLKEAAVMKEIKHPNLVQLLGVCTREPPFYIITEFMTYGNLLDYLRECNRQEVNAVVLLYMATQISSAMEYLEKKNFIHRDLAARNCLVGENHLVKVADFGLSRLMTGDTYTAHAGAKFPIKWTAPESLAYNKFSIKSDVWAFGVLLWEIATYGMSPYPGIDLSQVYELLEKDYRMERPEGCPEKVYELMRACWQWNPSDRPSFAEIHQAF
Assay type: biochemical
Description: (§1) Kinase assays were performed either in a 96 well capture-based ELISA assay or in 384 well Optiplates (Packard) using an Alphascreen Protein Tyrosine Kinase kit. In either case using approximately 15 μg of affinity purified PTK domain in the presence of 50 mM HEPES, pH 7.5, 10 mM MgCl2 150 mM NaCl and 10 μM-1 mM ATP. The biotinylated substrate biotin-EGPWLEEEEEAYGWMDF-NH2 (final concentration 5 μM) was used as substrate. In the ELISA assay tyrosine phosphorylation was quantitated following transfer to an avidin coated ELISA plate using peroxidase-linked anti-phospho-tyrosine antibody PY20. In the Alphascreen assay, Alphascreen phosphotyrosine acceptor beads followed by streptavidin donor beads were added under subdued light. The ELISA plates were read on a BMG Fluorostar, the Alphascreen plates were read on a Packard Fusion Alpha. Inhibitors were added to the assays fifteen minutes prior to the addition of ATP. Inhibitors were added in aqueous DMSO, with DMSO concentrations never exceeding 1%.

Structure (SMILES)	inhibition at 20 µM
CC[C@H](Nc1cncc(-n2cnc3ccccc32)n1)c1ccccc1	≥ 50%
COc1cc(-c2cncc(-n3cnc4ccccc43)n2)ccc1O	≥ 50%

The next lines start with the values.

inhibition at 20 µM	Structure (SMILES)
≥ 50%	C[C@H](Nc1cncc(-n2cnc3cc(NC(=O)N4CCN(C)CC4)ccc32)n1)c1ccccc1
≥ 50%	C[C@H](Nc1cncc(-n2cnc3cc(C(=O)NCCCCN4CCOCC4)ccc32)n1)c1ccccc1
≥ 50%	CC(Nc1cncc(-n2cnc3ccc(C#N)cc32)n1)c1cccnc1 (centres unmarked)

Each molecule was assayed against kdr (Homo sapiens, UniProt P35968) (assay: Kinase assay (ELISA or Alphascreen), kdr). Conditions: standard conditions, read-out: kdr inhibition of enzyme activity.
kdr, sequence (P35968 834-1162 limits assumed, species assumed): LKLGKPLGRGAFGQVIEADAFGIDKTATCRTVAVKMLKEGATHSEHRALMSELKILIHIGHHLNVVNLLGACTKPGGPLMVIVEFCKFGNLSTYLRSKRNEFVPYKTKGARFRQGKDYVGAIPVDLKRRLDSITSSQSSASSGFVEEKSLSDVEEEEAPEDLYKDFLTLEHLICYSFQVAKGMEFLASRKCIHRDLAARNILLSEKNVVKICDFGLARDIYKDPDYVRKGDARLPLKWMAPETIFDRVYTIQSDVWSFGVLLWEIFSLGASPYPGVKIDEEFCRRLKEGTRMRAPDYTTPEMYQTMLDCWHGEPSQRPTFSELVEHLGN
Assay type: biochemical
Description: as §1

inhibition at 20 µM	Structure (SMILES)
≥ 50%	C[C@H](Nc1cncc(-n2cnc3cc(NC(=O)N4CCN(C)CC4)ccc32)n1)c1ccccc1
≥ 50%	N#Cc1ccc2c(c1)ncn2-c1cncc(N[C@H]2CCc3ccccc32)n1
≥ 50%	CC[C@H](Nc1cncc(-n2cnc3cc(C#N)ccc32)n1)c1ccccc1

These molecules were tested against T2, human JAK3 (Homo sapiens, UniProt P52333) (assay: JAK kinase assay (ELISA or Alphascreen), Jak3). Conditions: standard conditions, read-out: Jak3 inhibition of enzyme activity.
T2 construct: The kinase domain of human JAK3 was amplified from U937mRNA; His tag (pFastBac HTb vector; nickel chelate purification) (N); made in house; host or cells: baculovirus; Sf9 for virus, High Five insect cells for production
T2 sequence (P52333 822-1111 limits assumed): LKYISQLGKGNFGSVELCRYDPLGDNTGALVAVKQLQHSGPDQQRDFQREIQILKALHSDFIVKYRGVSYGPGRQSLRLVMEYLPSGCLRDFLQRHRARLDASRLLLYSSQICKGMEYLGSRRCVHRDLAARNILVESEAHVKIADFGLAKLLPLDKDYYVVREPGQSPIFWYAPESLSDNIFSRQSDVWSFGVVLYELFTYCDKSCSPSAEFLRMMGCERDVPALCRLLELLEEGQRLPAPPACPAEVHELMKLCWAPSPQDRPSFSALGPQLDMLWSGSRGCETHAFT
Assay type: biochemical
Excerpt: The kinase domain of human JAK3 was amplified from U937mRNA using the polymerase chain reaction with the following primers: […]
JAK3 PCR products were cloned into the pFastBac HTb expression vector (Gibco) via the Xho I and Kpn I sites. The JAK3 plasmid was then transformed into competent DH10Bac cells (Gibco), and the recombinant baculovirus produced prepared for transfection into Sf9 insect cells.
(§2) Baculovirus preparations from each of the JAK family members were infected into five litres of High Five cells (Invitrogen) grown in High Five serum free medium (Invitrogen) to a cell density of approximately 1-2×10^6 cells/ml. Cells are infected with virus at a MOI of 0.8-3.0. Cells were harvested and lysed. JAK kinase domains were purified by affinity chromatography on a Probond (Invitrogen) nickel chelate affinity column.
as §1

Structure (SMILES)	inhibition at 20 µM
CC[C@H](Nc1cncc(-n2cnc3ccccc32)n1)c1ccccc1	< 50%
COc1cc(-c2cncc(-n3cnc4ccccc43)n2)ccc1O	< 50%
N#Cc1ccc2c(c1)ncn2-c1cncc(N[C@H]2CCc3ccccc32)n1	≥ 50%
CCNC(=O)Nc1ccc2c(c1)ncn2-c1cncc(N[C@@H](C)c2ccccc2)n1	< 50%
N#Cc1ccc2c(c1)ncn2-c1cncc(N[C@H]2CCCc3ccccc32)n1	≥ 50%
CC[C@H](Nc1cncc(-n2cnc3cc(C#N)ccc32)n1)c1ccccc1	≥ 50%
CC1CC(Nc2cncc(-n3cnc4cc(C#N)ccc43)n2)c2ccccc21 (centres unmarked)	≥ 50%
N#Cc1ccc2c(c1)ncn2-c1cncc(NC2CCc3cc(F)ccc32)n1 (centres unmarked)	≥ 50%
Cc1ncc(-n2cnc3ccc(C#N)cc32)nc1N[C@@H](C)c1cccc(F)c1	≥ 50%

Results, then the molecule that gave them:

inhibition at 20 µM	Structure (SMILES)
< 50%	C[C@H](Nc1cncc(-n2cnc3cc(NC(=O)N4CCN(C)CC4)ccc32)n1)c1ccccc1
< 50%	C[C@H](Nc1cncc(-n2cnc3cc(C(=O)NCCCCN4CCOCC4)ccc32)n1)c1ccccc1
< 50%	C[C@H](Nc1cncc(-n2cnc3ccc(CO)cc32)n1)c1ccc(F)cc1
≥ 50%	C[C@H](Nc1cncc(-n2cnc3ccc(CN4CCNCC4)cc32)n1)c1ccc(F)cc1
< 50%	CC(Nc1cncc(-n2cnc3cc(C#N)ccc32)n1)c1cccc2ccccc12 (centres unmarked)
< 50%	CC(Nc1cncc(-n2cnc3ccc(C#N)cc32)n1)c1cccnc1 (centres unmarked)
≥ 50%	CC(Nc1cncc(-n2cnc3cc(C#N)ccc32)n1)c1ccccc1F (centres unmarked)

The molecules below were run against hck (Homo sapiens, UniProt P08631) (assay: Kinase assay (ELISA or Alphascreen), hck). Conditions: standard conditions, read-out: hck inhibition of enzyme activity.
hck, sequence (P08631 262-515 limits assumed, species assumed): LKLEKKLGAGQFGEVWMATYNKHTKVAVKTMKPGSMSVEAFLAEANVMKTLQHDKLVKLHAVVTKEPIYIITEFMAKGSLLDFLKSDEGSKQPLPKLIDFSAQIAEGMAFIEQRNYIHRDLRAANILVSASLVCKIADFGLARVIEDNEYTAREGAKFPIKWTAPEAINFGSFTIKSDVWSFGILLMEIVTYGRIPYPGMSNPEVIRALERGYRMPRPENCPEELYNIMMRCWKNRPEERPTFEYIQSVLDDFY
Assay type: biochemical
Description: as §1

inhibition at 20 µM	Structure (SMILES)
≥ 50%	C[C@H](Nc1cncc(-n2cnc3cc(NC(=O)N4CCN(C)CC4)ccc32)n1)c1ccccc1
≥ 50%	C[C@H](Nc1cncc(-n2cnc3ccc(CO)cc32)n1)c1ccc(F)cc1

The molecules below were run against T3, zap70 (Homo sapiens, UniProt P43403) (assay: Kinase assay (ELISA or Alphascreen), zap70). Conditions: standard conditions, read-out: zap70 inhibition of enzyme activity.
T3 sequence (P43403 338-600 limits assumed): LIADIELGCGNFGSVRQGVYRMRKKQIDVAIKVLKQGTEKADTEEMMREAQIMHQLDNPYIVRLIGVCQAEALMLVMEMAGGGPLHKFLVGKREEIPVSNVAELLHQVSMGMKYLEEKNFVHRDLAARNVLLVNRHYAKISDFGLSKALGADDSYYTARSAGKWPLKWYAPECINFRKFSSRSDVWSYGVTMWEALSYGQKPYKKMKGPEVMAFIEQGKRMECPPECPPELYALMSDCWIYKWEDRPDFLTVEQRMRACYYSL
Assay type: biochemical
Description: as §1

inhibition at 20 µM	Structure (SMILES)
≥ 50%	CC[C@H](Nc1cncc(-n2cnc3ccccc32)n1)c1ccccc1
≥ 50%	C[C@H](Nc1cncc(-n2cnc3cc(NC(=O)N4CCN(C)CC4)ccc32)n1)c1ccccc1
≥ 50%	C[C@H](Nc1cncc(-n2cnc3cc(C(=O)NCCCCN4CCOCC4)ccc32)n1)c1ccccc1

The molecules below were run against btk (Homo sapiens, UniProt Q06187) (assay: Kinase assay (ELISA or Alphascreen), btk). Conditions: standard conditions, read-out: btk inhibition of enzyme activity.
btk, sequence (Q06187 402-655 limits assumed, species assumed): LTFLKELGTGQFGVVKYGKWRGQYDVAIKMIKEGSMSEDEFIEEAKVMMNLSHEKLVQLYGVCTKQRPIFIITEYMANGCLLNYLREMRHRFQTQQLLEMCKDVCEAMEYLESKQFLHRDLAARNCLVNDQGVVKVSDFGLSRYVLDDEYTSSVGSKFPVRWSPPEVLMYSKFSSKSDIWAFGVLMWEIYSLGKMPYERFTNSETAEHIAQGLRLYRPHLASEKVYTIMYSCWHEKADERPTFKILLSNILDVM
Assay type: biochemical
Description: as §1

inhibition at 20 µM	Structure (SMILES)
≥ 50%	C[C@H](Nc1cncc(-n2cnc3ccc(CO)cc32)n1)c1ccc(F)cc1

What follows are molecules tested against tie2 (Homo sapiens, UniProt Q02763) (assay: Kinase assay (ELISA or Alphascreen), tie2). Conditions: standard conditions, read-out: tie2 inhibition of enzyme activity.
tie2, sequence (Q02763 824-1096 limits assumed, species assumed): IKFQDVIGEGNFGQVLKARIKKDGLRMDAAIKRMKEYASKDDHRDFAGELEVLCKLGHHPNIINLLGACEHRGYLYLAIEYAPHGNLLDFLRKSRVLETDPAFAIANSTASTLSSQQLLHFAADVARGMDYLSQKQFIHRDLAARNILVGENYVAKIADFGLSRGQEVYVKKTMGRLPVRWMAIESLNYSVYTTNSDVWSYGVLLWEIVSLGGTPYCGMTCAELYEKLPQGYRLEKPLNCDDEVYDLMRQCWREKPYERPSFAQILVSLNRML
Assay type: biochemical
Description: as §1

inhibition at 20 µM	Structure (SMILES)
≥ 50%	C[C@H](Nc1cncc(-n2cnc3ccc(CN4CCNCC4)cc32)n1)c1ccc(F)cc1
≥ 50%	N#Cc1ccc2c(c1)ncn2-c1cncc(N[C@H]2CCc3ccccc32)n1
≥ 50%	CC[C@H](Nc1cncc(-n2cnc3cc(C#N)ccc32)n1)c1ccccc1
≥ 50%	N#Cc1ccc2c(c1)ncn2-c1cncc(NC2CCc3cc(F)ccc32)n1 (centres unmarked)
≥ 50%	Cc1ncc(-n2cnc3ccc(C#N)cc32)nc1N[C@@H](C)c1cccc(F)c1

What follows are molecules tested against T4, fms (Homo sapiens, UniProt P07333) (assay: Kinase assay (ELISA or Alphascreen), fms). Conditions: standard conditions, read-out: fms inhibition of enzyme activity.
T4 sequence (P07333 582-910 limits assumed): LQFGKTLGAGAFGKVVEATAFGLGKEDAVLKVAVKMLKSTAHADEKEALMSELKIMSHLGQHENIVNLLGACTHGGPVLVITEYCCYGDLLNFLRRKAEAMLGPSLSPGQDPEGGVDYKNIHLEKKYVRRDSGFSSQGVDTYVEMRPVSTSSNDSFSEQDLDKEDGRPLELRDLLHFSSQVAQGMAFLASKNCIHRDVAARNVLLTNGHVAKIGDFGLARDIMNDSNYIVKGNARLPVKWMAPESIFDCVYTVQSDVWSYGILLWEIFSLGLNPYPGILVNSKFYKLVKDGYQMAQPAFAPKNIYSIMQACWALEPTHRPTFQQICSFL
Assay type: biochemical
Description: as §1

Structure (SMILES)	inhibition at 20 µM
CCNC(=O)Nc1ccc2c(c1)ncn2-c1cncc(N[C@@H](C)c2ccccc2)n1	≥ 50%
N#Cc1ccc2c(c1)ncn2-c1cncc(N[C@H]2CCCc3ccccc32)n1	≥ 50%
CC1CC(Nc2cncc(-n3cnc4cc(C#N)ccc43)n2)c2ccccc21 (centres unmarked)	≥ 50%

Next, values leading:

inhibition at 20 µM	Structure (SMILES)
≥ 50%	CC(Nc1cncc(-n2cnc3cc(C#N)ccc32)n1)c1cccc2ccccc12 (centres unmarked)
≥ 50%	CC(Nc1cncc(-n2cnc3cc(C#N)ccc32)n1)c1ccccc1F (centres unmarked)

These molecules were tested against T5, human JAK2 (Homo sapiens, UniProt O60674) (assay: JAK kinase assay (ELISA or Alphascreen), Jak2). Conditions: standard conditions, read-out: Jak2 inhibition of enzyme activity.
T5 construct: The kinase domain of human JAK2 was amplified from U937mRNA; His tag (pFastBac HTc vector; nickel chelate purification) (N); made in house; host or cells: baculovirus; Sf9 for virus, High Five insect cells for production
T5 sequence (O60674 849-1124 limits assumed): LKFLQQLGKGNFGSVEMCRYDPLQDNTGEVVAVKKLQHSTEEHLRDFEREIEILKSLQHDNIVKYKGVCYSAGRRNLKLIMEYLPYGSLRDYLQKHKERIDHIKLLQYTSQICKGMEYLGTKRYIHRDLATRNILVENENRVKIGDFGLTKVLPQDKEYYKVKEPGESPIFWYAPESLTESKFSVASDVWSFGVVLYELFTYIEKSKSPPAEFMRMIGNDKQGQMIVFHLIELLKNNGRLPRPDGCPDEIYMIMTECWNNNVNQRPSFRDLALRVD
Assay type: biochemical
Excerpt: The kinase domain of human JAK2 was amplified from U937mRNA using the polymerase chain reaction with the following primers: […]
JAK2 PCR products were cloned into the pFastBac HTc expression vector (Gibco) via the Sal I and Not I sites. The JAK2 plasmid was then transformed into competent DHL10Bac cells (Gibco), and the recombinant baculovirus produced prepared for transfection into Sf9 insect cells.
as §2, §1

Structure (SMILES)	inhibition at 20 µM
CC[C@H](Nc1cncc(-n2cnc3ccccc32)n1)c1ccccc1	≥ 50%
COc1cc(-c2cncc(-n3cnc4ccccc43)n2)ccc1O	< 50%
N#Cc1ccc2c(c1)ncn2-c1cncc(N[C@H]2CCc3ccccc32)n1	≥ 50%
CCNC(=O)Nc1ccc2c(c1)ncn2-c1cncc(N[C@@H](C)c2ccccc2)n1	≥ 50%
N#Cc1ccc2c(c1)ncn2-c1cncc(N[C@H]2CCCc3ccccc32)n1	≥ 50%
CC[C@H](Nc1cncc(-n2cnc3cc(C#N)ccc32)n1)c1ccccc1	≥ 50%
CC1CC(Nc2cncc(-n3cnc4cc(C#N)ccc43)n2)c2ccccc21 (centres unmarked)	≥ 50%
N#Cc1ccc2c(c1)ncn2-c1cncc(NC2CCc3cc(F)ccc32)n1 (centres unmarked)	≥ 50%
Cc1ncc(-n2cnc3ccc(C#N)cc32)nc1N[C@@H](C)c1cccc(F)c1	≥ 50%

Other lines, results leading:

inhibition at 20 µM	Structure (SMILES)
≥ 50%	C[C@H](Nc1cncc(-n2cnc3cc(NC(=O)N4CCN(C)CC4)ccc32)n1)c1ccccc1
≥ 50%	C[C@H](Nc1cncc(-n2cnc3cc(C(=O)NCCCCN4CCOCC4)ccc32)n1)c1ccccc1
≥ 50%	C[C@H](Nc1cncc(-n2cnc3ccc(CO)cc32)n1)c1ccc(F)cc1
< 50%	C[C@H](Nc1cncc(-n2cnc3ccc(CN4CCNCC4)cc32)n1)c1ccc(F)cc1
< 50%	CC(Nc1cncc(-n2cnc3cc(C#N)ccc32)n1)c1cccc2ccccc12 (centres unmarked)
< 50%	CC(Nc1cncc(-n2cnc3ccc(C#N)cc32)n1)c1cccnc1 (centres unmarked)
≥ 50%	CC(Nc1cncc(-n2cnc3cc(C#N)ccc32)n1)c1ccccc1F (centres unmarked)
